# Results: patent US20050197350A1, “Novel quinoline, tetrahydroquinazoline, and pyrimidine derivatives and methods of treatment related to the use thereof” (TAISHO PHARMACEUTICAL CO., LTD., priority 2003, published 2005)
# System: MCH receptors
# Assay: MCH receptor activity class (method not given)
# Settings: MCH receptor activity class 1-3 (percent of control at 10^-7 M or IC50)
row,SMILES,class
1,Cc1ccccc1NC(=O)NC[C@H]1CC[C@@H](Nc2nc3c(c(N(C)C)n2)CCCC3)CC1 [compound 2460],3 (Class 3 The value of percent of control at 10^−7 M was more than 60% or the value of IC50 was more than 200 nM.)

# Same assay, conditions: MCH receptor; class by percent of control at 10^-7 M or IC50
row,SMILES,class
1,CN(C)c1cc(N[C@H]2CC[C@@H](NC(=O)c3cccc(C#N)c3)CC2)nc2ccccc12 [compound 29],2 (Class 2: The value of percent of control at 10^−7 M was from 40% to 60% or the value of IC′50 was from 50 nM to 200 nM.)
2,C#CCNC(=S)N[C@H]1CC[C@@H](Nc2nc3c(c(N(C)C)n2)CCCC3)CC1 [compound 2056],3 (Class 3 The value of percent of control at 10^−7 M was more than 60% or the value of IC50 was more than 200 nM.)
3,CN(C)c1cc(N[C@H]2CC[C@@H](NC(=O)c3sc(Cl)c(Cl)c3Cl)CC2)nc2ccccc12 [compound 132],3 (Class 3 The value of percent of control at 10^−7 M was more than 60% or the value of IC50 was more than 200 nM.)
4,CN(C)c1cc(N[C@H]2CC[C@@H](CNC(=O)c3cc(C(C)(C)C)nn3C)CC2)nc2ccccc12 [compound 213],3 (Class 3 The value of percent of control at 10^−7 M was more than 60% or the value of IC50 was more than 200 nM.)
5,CN(C)c1cc(N[C@H]2CC[C@@H](NC(=O)c3ccc(I)cc3)CC2)nc2ccccc12 [compound 41],3 (Class 3 The value of percent of control at 10^−7 M was more than 60% or the value of IC50 was more than 200 nM.)

# Same assay, conditions: activity class 1-3: percent of control at 10^-7 M or IC50
row,SMILES,class
1,CN(C)c1ccnc(N[C@H]2CC[C@@H](NC(=O)OCC(C)(C)C)CC2)n1 [compound 1620],3 (Class 3 The value of percent of control at 10^−7 M was more than 60% or the value of IC50 was more than 200 nM.)
2,Cc1ccc(OC(=O)N[C@H]2CC[C@@H](Nc3nc4c(c(N(C)C)n3)CCCC4)CC2)cc1 [compound 1594],3 (Class 3 The value of percent of control at 10^−7 M was more than 60% or the value of IC50 was more than 200 nM.)
3,CN(C)c1cc(N[C@H]2CC[C@@H](NC(=O)OCC(C)(C)C)CC2)nc2ccccc12 [compound 1540],3 (Class 3 The value of percent of control at 10^−7 M was more than 60% or the value of IC50 was more than 200 nM.)
4,CN(C)c1ccnc(N[C@H]2CC[C@@H](CNCc3cc(Cl)ccc3Cl)CC2)n1 [compound 1534],3 (Class 3 The value of percent of control at 10^−7 M was more than 60% or the value of IC50 was more than 200 nM.)
5,Cc1cc(C)c(NC(=O)N[C@H]2CC[C@@H](Nc3nc4c(c(N(C)C)n3)CCCC4)CC2)c(C)c1 [compound 1667],1 (Class 1: The value of percent of control at 10^−7 M was less than 40% or the value of IC50 was less than 50 nM.)

# Same assay, conditions: activity class per percent of control at 10^-7 M or IC50
row,SMILES,class
1,CN(C)c1nc(N[C@H]2CC[C@@H](NC(=O)Cc3cc(C(C)(C)C)c(O)c(C(C)(C)C)c3)CC2)nc2c1CCCC2 [compound 979],3 (Class 3 The value of percent of control at 10^−7 M was more than 60% or the value of IC50 was more than 200 nM.)
2,Cc1c(C(=O)N[C@H]2CC[C@@H](Nc3nc4c(c(N(C)C)n3)CCCC4)CC2)cc(-c2ccccc2)n1-c1ccccc1 [compound 1027],2 (Class 2: The value of percent of control at 10^−7 M was from 40% to 60% or the value of IC′50 was from 50 nM to 200 nM.)
3,CN(C)c1cc(N[C@H]2CC[C@@H](NCc3ccc(F)c(Br)c3)CC2)nc2ccccc12 [compound 1105],3 (Class 3 The value of percent of control at 10^−7 M was more than 60% or the value of IC50 was more than 200 nM.)
4,CN(C)c1nc(N[C@H]2CC[C@@H](CNC(=O)C(Cc3ccccc3)c3ccccc3)CC2)nc2c1CCCC2 (relative stereo) [compound 1066],3 (Class 3 The value of percent of control at 10^−7 M was more than 60% or the value of IC50 was more than 200 nM.)

# Same assay, conditions: class 1-3 by percent of control at 10^-7 M or IC50
row,SMILES,class
1,CC(Oc1ccccc1)C(=O)N[C@H]1CC[C@@H](Nc2nc3c(c(N(C)C)n2)CCCC3)CC1 (relative stereo) [compound 485],1 (Class 1: The value of percent of control at 10^−7 M was less than 40% or the value of IC50 was less than 50 nM.)
2,"CN(C)c1nc(N[C@H]2CC[C@@H](NC(=O)c3cccs3)CC2)nc2c1CCCC2 [compound 488, N-(cis-4-{[4-(dimethylamino)-5,6,7,8-tetrahydroquinazolin-2-yl]amino}cyclohexyl)thiophene-2-carboxamide]",3 (Class 3 The value of percent of control at 10^−7 M was more than 60% or the value of IC50 was more than 200 nM.)
3,Cc1cc(C(=O)NC[C@H]2CC[C@@H](Nc3nccc(N(C)C)n3)CC2)ccc1F [compound 426],3 (Class 3 The value of percent of control at 10^−7 M was more than 60% or the value of IC50 was more than 200 nM.)
4,CN(C)c1nc(N[C@H]2CC[C@@H](NC(=O)COc3ccccc3)CC2)nc2c1CCCC2 [compound 548],1 (Class 1: The value of percent of control at 10^−7 M was less than 40% or the value of IC50 was less than 50 nM.)
5,CN(C)c1nc(N[C@H]2CC[C@@H](CNC(=O)c3ccc(Cl)c([N+](=O)[O-])c3)CC2)nc2c1CCCC2 [compound 589],3 (Class 3 The value of percent of control at 10^−7 M was more than 60% or the value of IC50 was more than 200 nM.)

# Same assay, conditions: class by percent of control at 10^-7 M or IC50
row,SMILES,class
1,CN(C)c1cc(N[C@H]2CC[C@@H](CNC(=O)c3c(F)ccc(F)c3F)CC2)nc2ccccc12 [compound 227],3 (Class 3 The value of percent of control at 10^−7 M was more than 60% or the value of IC50 was more than 200 nM.)
2,Cc1onc(-c2ccccc2)c1NC(=O)N[C@H]1CC[C@@H](Nc2nccc(N(C)C)n2)CC1 [compound 2256],3 (Class 3 The value of percent of control at 10^−7 M was more than 60% or the value of IC50 was more than 200 nM.)
3,CCOC(=O)c1cccc(NC(=O)N[C@H]2CC[C@@H](Nc3cc(N(C)C)c4ccccc4n3)CC2)c1 [compound 2127],3 (Class 3 The value of percent of control at 10^−7 M was more than 60% or the value of IC50 was more than 200 nM.)
4,CN(C)c1ccnc(N[C@H]2CC[C@@H](CNC(=O)c3cccc(Br)c3)CC2)n1 [compound 366],3 (Class 3 The value of percent of control at 10^−7 M was more than 60% or the value of IC50 was more than 200 nM.)
5,Cc1ccc([N+](=O)[O-])c(NC(=O)NC[C@H]2CC[C@@H](Nc3nc4c(c(N(C)C)n3)CCCC4)CC2)c1C [compound 2489],2 (Class 2: The value of percent of control at 10^−7 M was from 40% to 60% or the value of IC′50 was from 50 nM to 200 nM.)
6,CN(C)c1nc(N[C@H]2CC[C@@H](NC(=O)Nc3cccc(C(F)(F)F)c3F)CC2)nc2c1CCCC2 [compound 1858],3 (Class 3 The value of percent of control at 10^−7 M was more than 60% or the value of IC50 was more than 200 nM.)
7,CN(C)c1nc(N[C@H]2CC[C@@H](NC(=O)C(Cc3ccccc3)c3ccccc3)CC2)nc2c1CCCC2 (relative stereo) [compound 954],2 (Class 2: The value of percent of control at 10^−7 M was from 40% to 60% or the value of IC′50 was from 50 nM to 200 nM.)
8,CN(C)c1cc(N[C@H]2CC[C@@H](NC(=O)c3scc(S(C)(=O)=O)c3Cl)CC2)nc2ccccc12 [compound 764],3 (Class 3 The value of percent of control at 10^−7 M was more than 60% or the value of IC50 was more than 200 nM.)
9,CN(C)c1ccnc(N[C@H]2CC[C@@H](CNCc3ccccc3SC(F)(F)F)CC2)n1 [compound 1286],3 (Class 3 The value of percent of control at 10^−7 M was more than 60% or the value of IC50 was more than 200 nM.)
10,"CN(C)c1ccnc(N[C@H]2CC[C@@H](NC(=O)c3cccnc3Oc3ccccc3)CC2)n1 [compound 353, N-(cis-4-{[4-(dimethylamino)pyrimidin-2-yl]amino}cyclohexyl)-2-phenoxynicotinamide]",2 (Class 2: The value of percent of control at 10^−7 M was from 40% to 60% or the value of IC′50 was from 50 nM to 200 nM.)
11,CCc1ccccc1NC(=S)N[C@H]1CC[C@@H](Nc2nc3c(c(N(C)C)n2)CCCC3)CC1 [compound 1748],3 (Class 3 The value of percent of control at 10^−7 M was more than 60% or the value of IC50 was more than 200 nM.)
12,"CN(C)c1cc(N[C@H]2CC[C@@H](NC(=O)Cc3c[nH]c4ccccc34)CC2)nc2ccccc12 [compound 711, N-(cis-4-{[4-(dimethylamino)quinolin-2-yl]amino}cyclohexyl)-2-(1H-indol-3-yl)acetamide]",1 (Class 1: The value of percent of control at 10^−7 M was less than 40% or the value of IC50 was less than 50 nM.)
13,"Cc1cc(Br)cc(C)c1NC(=O)N[C@H]1CC[C@@H](Nc2nccc(N(C)C)n2)CC1 [compound 2210, N-(4-bromo-2,6-dimethylphenyl)-N′-(cis-4-{[4-(dimethylamino)pyrimidin-2-yl]amino}cyclohexyl)urea]",1 (Class 1: The value of percent of control at 10^−7 M was less than 40% or the value of IC50 was less than 50 nM.)
14,Cc1ccc(NC(=O)N[C@H]2CC[C@@H](Nc3nc4c(c(N(C)C)n3)CCCC4)CC2)cc1[N+](=O)[O-] [compound 1894],3 (Class 3 The value of percent of control at 10^−7 M was more than 60% or the value of IC50 was more than 200 nM.)
15,CN(C)c1cc(N[C@H]2CC[C@@H](NC(=O)c3cccc(Oc4ccccc4)c3)CC2)nc2ccccc12 [compound 731],3 (Class 3 The value of percent of control at 10^−7 M was more than 60% or the value of IC50 was more than 200 nM.)

# Same assay, conditions: class by percent of control at 10^−7 M or IC50
row,SMILES,class
1,Cc1ccc(CN[C@H]2CC[C@@H](Nc3ncc(C)c(N(C)C)n3)CC2)cc1 [compound 2996],3 (Class 3 The value of percent of control at 10^−7 M was more than 60% or the value of IC50 was more than 200 nM.)
2,COc1ccc(CN[C@H]2CC[C@@H](Nc3ncc(C)c(N(C)C)n3)CC2)cc1C [compound 3003],3 (Class 3 The value of percent of control at 10^−7 M was more than 60% or the value of IC50 was more than 200 nM.)
3,"Cc1ccc(C(=O)N[C@H]2CC[C@@H](Nc3ncc(C)c(N(C)C)n3)CC2)cc1F [compound 2924, N-(cis-4-{[4-(dimethylamino)-5-methylpyrimidin-2-yl]amino}cyclohexyl)-3-fluoro-4-methylbenzamide]",1 (Class 1: The value of percent of control at 10^−7 M was less than 40% or the value of IC50 was less than 50 nM.)
